What all share (assay): NCI anticancer screen, dose series, 48 h
Assay [1] deals with ACHN renal.
Assay [2] deals with NCI-H23 lung.
Assay [3] deals with MALME-3M melanoma.
Assay [4] deals with SF-295 CNS.
Assay [5] has as its system MCF7 breast.
The subject of assay [6] is LOX IMVI melanoma.
Assay [7] deals with HOP-92 NSCLC.
In assay [8] the test system is KM12 colon.
Assay [9] relates to K-562 leukemia.
Assay [10] relates to HOP-62 NSCLC.

Here are results for eight compounds from PubChem BioAssay (NCI).

Each structure is given as a SMILES string. “And” between values parts separate entries of the source, which are not always exact repeats. Identical values can stand only once.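 Five compound concentrations were applied to cells in 96-well plates for 48 hours; endpoints were derived by simple linear interpolation of the resulting dose-response curve. Here, GI50 denotes the concentration required for 50% inhibition of growth. Definition used: TGI = concentration required for complete inhibition of growth.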

On to `Nc1c(C(=O)c2cccc(OCCN3CCOCC3)c2)cnn1-c1ccc(F)cc1`, for which the GI50 is over 25 µM in assay [1]; over 25 µM in assay [2]; over 25 µM in [3]; over 25 µM in assay [4]; over 25 µM in assay [5]; over 25000 nM in assay [6]. Further, the GI50 in assay [7] is over 25000 nM; in [8], over 25 µM; in assay [9], over 25 µM; in [10], over 25 µM. Further, the TGI in assay [1], in [2], in [3], in [4], in [5] and in assay [6] was over 25 µM in each case. In addition, the TGI in [7], in assay [8], in assay [9] and in assay [10] was over 25 µM throughout.

As to `O=C1/C(=C/c2ccccc2)SC(=Nc2ccccc2)N1Nc1ccccc1`, the GI50 in assay [1] was 23 µM; in assay [2] it was 22.6 µM; in assay [3] it was 19.8 µM; in assay [4], 16.3 µM; in [5], 7.91 µM; in assay [7], 3600 nM. Moreover, the GI50 in [8] was 19 µM; in assay [9], 6.08 µM; in [10], 23.4 µM. For the same compound, the TGI is over 100 µM in [1]; over 100 µM in [2]; 66.8 µM in assay [3]; over 100 µM in [4]; 83.5 µM in assay [5]; 42.2 µM in [7]. In addition, the TGI in assay [8], in assay [9] and in [10] was over 100 µM throughout.

On to `C=C1C(=O)O[C@H]2[C@H]1CC/C(COC(=O)C(=O)c1c[nH]c3ccc(OC)cc13)=C\CC[C@@]1(C)O[C@@H]21`, for which the GI50 in [1] is 4.21 µM; in assay [2] it was 7.01 µM; in [3], 6.43 µM; in [4], 12.4 µM; in assay [5] it was 3.69 µM; in assay [6], 1490 nM. Also, the GI50 in assay [7] is 1740 nM; in [8], 7.82 µM; in assay [9], over 100 µM; in assay [10] it was 6.49 µM. The TGI was 9.2 µM in assay [1]; 13.8 µM in assay [2]; 11 µM in assay [3]; 29.5 µM in assay [4]; 16.9 µM in assay [5]; 2.35 µM in [6]. The TGI in assay [7] was 3.85 µM; in [8], 14.2 µM; in assay [9], over 100 µM; in assay [10], 11.9 µM.

As for `CS(=O)(=O)N1CCN(Cc2cc3nc(-c4cccc5[nH]ncc45)nc(N4CCOCC4)c3s2)CC1` (tested in a mixture with another compound), the GI50 in assay [1] is 0.0638 µM; in [2] it was 0.26 µM; in assay [3] it was 0.139 µM; in assay [4], 0.062 µM; in [5], 0.0509 µM; in assay [6] it was 169 nM. Further, the GI50 in assay [7] is 114 nM; in [8], 0.0826 µM; in assay [9], 0.349 µM; in [10], 0.112 µM. For the same compound, the TGI in assay [3] stood at 1.99 µM; in assay [4], 0.468 µM; in assay [7], 0.829 µM; in [8] it was 0.415 µM.

In the case of `Cc1cc(=O)oc2cc(OC(=O)Nc3ccc(Cl)c(Cl)c3)ccc12`, the TGI in assay [1] is 78.1 µM; in assay [2], 53 µM; in assay [3], 51.8 µM; in assay [4], 74.4 µM; in assay [5] it was over 100 µM; in [6], 37.2 µM. The TGI is 43.4 µM in assay [7], 84 µM in assay [8], 28.2 µM in assay [9] and 63.2 µM in assay [10].

For the compound `COc1cc(-c2oc3c(OC)c(OC)cc(O)c3c(=O)c2OC)ccc1O`, the GI50 in assay [1] is 1.84 µM and 4.71 µM; in [2] it was 7.38 µM and 35.1 µM; in assay [4], 3.24 µM and 8.34 µM; in assay [6], 1880 nM and 7950 nM; in assay [7], 2740 nM and 5850 nM; in [8], > 100 µM and 19 µM. The GI50 in assay [10] was 4.01 µM and 14.7 µM. Besides, the TGI in [2] is over 100 µM; in assay [3], over 100 µM; in assay [4], > 100 µM and 38.1 µM; in assay [5], over 50 µM; in assay [6] it was > 100 µM and 36.3 µM; in assay [7], 9.13 µM and 30.1 µM. Moreover, the TGI in assay [8] was over 100 µM; in [9] it was over 50 µM; in [10], over 100 µM.

Consider `C=C(CN1CCN(c2cccc(C(F)(F)F)c2)CC1)c1ccc(C(=O)Nc2ccccc2N)cc1`, for which the GI50 in assay [1] is 0.92 µM; in assay [2], 3.72 µM; in assay [4] it was 0.537 µM; in assay [5], 1.25 µM; in assay [6] it was 560 nM; in assay [7] it was 1510 nM. Moreover, the values for the GI50 in [8], in assay [9] and in assay [10] were 0.486 µM, 0.185 µM and 0.696 µM, respectively. The TGI in [1] is 11.1 µM; in assay [2] it was over 32.9 µM; in assay [4], 3.88 µM; in [5] it was over 27.5 µM; in [6], 6.25 µM; in assay [7] it was 17.8 µM. For the same compound, the TGI in assay [8] came to 5.15 µM; in assay [9], 8.27 µM; in [10] it was 6.27 µM.

Take `COc1c2ccccc2c(O)c2c(=O)c(C(=O)O)cn(C)c12`: the GI50 in assay [1] is over 100 µM; in assay [2], over 100 µM; in assay [4], 28.8 µM; in assay [5], over 100 µM; in assay [6] it was over 100000 nM; in [7] it was 56900 nM. Also, the GI50 in assay [8], in [9] and in assay [10] was over 100 µM each time. In addition, the TGI in assay [1], in assay [2], in [4], in assay [5], in assay [6] and in assay [7] was over 100 µM throughout. The TGI in assay [8], in [9] and in assay [10] was over 100 µM throughout.
